Experimental data from patent US12162892B2, “CD16a binding agents and uses thereof” (KLEO PHARMACEUTICALS, INC., priority 2018, dated 2024).
Where “and” joins values, the source holds several entries; their conditions need not be identical. Equal values may be shown once. Each block holds one compound with its values, some of them ahead of it.

Key:
CD16a158V [1] = molecular target: T1, CD16a158V (Homo sapiens, UniProt P08637, F176V); experiment: Biotinylated Ligand ELISA Assay; type: binding; conditions: Biotinylated CD16a protein at 10 nM
Procedure, shortened: (§1)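 Neutravidin-coated plates, BSA-blocked, loaded with biotinylated ligands 1 h at 25° C., free sites blocked with 100 μM biotin. Bound protein detected with streptavidin-HRP 1 h at 25° C. and chemiluminescent substrate for 5 min; luminescence read.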

primary monocytes = experiment: ADCP assay using fresh primary monocytes; type: cell-based, human; conditions: beads loaded with test compound at 50 uM; 37C for 18 hrs
Protocol: (§2) Biotinylated fluorescent beads (Invitrogen, cat #P35372) were thoroughly mixed by vortexing for 1 min. Ten microliters of supplied bead suspension per treatment type were dispensed in Eppendorf tubes, and washed with 1 ml PBS […], then re-suspended in 500 uL of 1% BSA in PBS. Test compounds were added to bead suspensions to a final concentration of 50 uM, and biotinylated human IgG whole molecule (Rockland 009-0602) final concentration of 20 ug/mL.
(§3) Tubes were incubated at room temperature for 1 hr on a rocking platform.
(§4) Following incubation, beads were pelleted in a microcentrifuge at 12,000 g for 5 minutes at room temperature. Supernatants were carefully aspirated and beads were washed 5 times by resuspending in 1 ml of PBS 1% BSA, and centrifuging as described above. Finally, beads were resuspended in 500 ul of PBS 1% BSA and used in ADCP assay.
PBMC, freshly isolated from whole blood (Bioreclamation IVT0) using Ficoll-Paque density centrifugation were resuspended in serum-free, supplemented RPMI at 2×10^6 cells/mL.
Ten milliliters of the resulting cell suspension was seeded into 75-cm^2 tissue culture flask (Denville Scientific TC9341) and incubated 2-3 hr at 37° C. 5% CO2 to allow cell adhesion. Following incubation, media was decanted and surface of the flask was carefully washed twice, each time with 10 ml serum-free, supplemented RPMI to remove any residual non-adherent cells. To remove adherent cells, 10 mL of ice-cold 2.5 mM EDTA/PBS solution was added for 10 min on ice. Cells were transferred to a 15-ml conical tube and centrifuge 10 min at 300×g, room temperature, to remove the EDTA/PBS solution. Monocytes were then resuspended in RPMI 10% FCS at 5×10^5 cells/mL to be used in ADCP assay. Monocyte purity was assessed by staining cells with antibodies to human CD3 FITC (Biolegend 300306), CD19 PeCy7 (Biolegend 302216), CD14 BV421 (BD Biosciences, 565283), and CD16 (Biolegend 302046).
(§5) Monocytes or THP-1 cells (TIB-202 ATCC) were seeded into 96 well round bottom 96 well plates at the density of 10^5 cells per well in 200 ul, and 10 uL of fluorescent bead suspension prepared as described above was added to each well. Well contents were mixed by pipetting up and down using a multichannel pipet, and plates were incubated at 37C for 18 hrs. After incubation, well contents were transferred into flat bottom black 96 well plates (Costar #3358) and centrifuged for 2 minutes at 300 g to allow for better visualization of the cells. Images were taken using Zoe fluorescent cell imager (Biorad).

[2] = tested on: CD16a negative THP1 cells; experiment: ADCP assay using THP-1 cells; type: cell-based; conditions: beads loaded with test compound at 50 uM; 37C for 18 hrs
Protocol: as §2, §3, §4, §5

CD16a158F [3] = molecular target: T2, CD16a158F (Homo sapiens, UniProt P08637); experiment: Biotinylated Ligand ELISA Assay; type: binding; design: purchased Acro Biosystems CDA-H82E8; conditions: Biotinylated CD16a protein at 10 nM
Procedure, shortened: as §1

CD16a158F [4] = molecular target: T2, CD16a158F; experiment: Microscale Thermophoresis; type: binding; design: purchased Acro Biosystems CDA-H82E8; conditions: read-out: MST-CD16a158F KD
Protocol: Target proteins (poly-histidine tagged, 600 nM) were fluorescently labeled combination with an equal volume of dye (200 nM, His-Tag labeling kit RED-tris-NTA NanoTemper: MO-L008) PBST. The mixture rotated in the dark for 45 min before being spun down at 12000 rpm for 15 min to remove uncomplexed material. The fluorescence of the removed supernatant was adjusted to for a test concentration of 40-80 nM (2× the final measured). Test ligands were prepared across a 12-point dilution series in a 96-well PCR plate at a volume of 20 uL at 2× the concentration desired for testing (0.2% BSA in PBST). The dilution series was then combined with an equal volume of the labeled target at 2× the concentration desired for testing. Capillaries were added to the wells of the combined target/ligand complex and measured by MST. Measurements were taken using a Nanotemper Monolith NT.115, and the data was analyzed using NanoTemper MO.Control software.

CD16a158F [5] = molecular target: T2, CD16a158F; experiment: Biotin ELISA, interaction with various receptors (Example 55); type: binding; conditions: three replicate values per compound
Procedure, shortened: (§6)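 Antibodies reacted with compounds through reactive groups, alongside DMSO-treated and untreated antibody references, were tested for receptor interaction on biotin-ligand/neutravidin plates. Signal came from streptavidin-HRP chemiluminescence.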

CD16a158V [6] = molecular target: T1, CD16a158V; experiment: as above; type: binding; conditions: three replicate values per compound
Procedure, shortened: as §6

CD32a H167 [7] = molecular target: T3, CD32a H167 (Homo sapiens, UniProt P12318); experiment: as above; type: binding; conditions: three replicate values per compound
T3 sequence (P12318 36-218 limits assumed): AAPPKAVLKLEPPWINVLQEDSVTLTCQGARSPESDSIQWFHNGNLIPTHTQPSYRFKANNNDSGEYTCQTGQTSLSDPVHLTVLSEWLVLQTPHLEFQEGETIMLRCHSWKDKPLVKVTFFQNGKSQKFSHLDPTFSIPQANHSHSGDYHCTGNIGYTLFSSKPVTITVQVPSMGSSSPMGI
Procedure, shortened: as §6

CD32a-R167 [8] = experiment: as above; type: binding; conditions: three replicate values per compound
Procedure, shortened: as §6

CD32b [9] = molecular target: T4, CD32b (Homo sapiens, UniProt P31994); experiment: as above; type: binding; conditions: three replicate values per compound
T4 sequence (P31994 43-310): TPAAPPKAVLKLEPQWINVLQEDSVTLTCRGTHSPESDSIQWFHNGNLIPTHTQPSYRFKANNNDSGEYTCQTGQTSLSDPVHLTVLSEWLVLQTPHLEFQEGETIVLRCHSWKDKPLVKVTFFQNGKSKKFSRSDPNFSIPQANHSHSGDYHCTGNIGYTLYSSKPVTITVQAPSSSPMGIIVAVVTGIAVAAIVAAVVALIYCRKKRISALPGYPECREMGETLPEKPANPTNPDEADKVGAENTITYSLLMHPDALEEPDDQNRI
Procedure, shortened: as §6

CD3ed [10] = molecular target: T5, CD3ed (Homo sapiens, UniProt P04234+P07766); experiment: as above; type: binding; conditions: three replicate values per compound
Procedure, shortened: as §6

CD64 = CD64 (Homo sapiens, UniProt P12314); experiment: as above; type: binding; conditions: three replicate values per compound
Procedure, shortened: as §6

[11] = Biotin ELISA, No Protein (Example 55); type: binding; conditions: three replicate values per compound
Procedure, shortened: as §6

CD16a158V [12] = experiment: CD16a-MATE ELISA; type: binding; conditions: Carbohydrate Conjugated MATEs; relative to Rituximab; Antibodies tested at 2 ug/mL
CD16a158F [13] = molecular target: T2, CD16a158F; experiment: CD16a-MATE ELISA; type: binding; design: purchased Acro Biosystems CDA-H82E8; conditions: Carbohydrate Conjugated MATEs; relative to Rituximab; Antibodies tested at 2 ug/mL
CD16a 158V = experiment: MATE ELISA, interaction with various receptors (Example 55); type: binding; conditions: Table 11; three replicate values
Protocol: (§7) Coat ELISA plates (Costar 3922) using Neutravidin (Thermo 31000) at 5 μg/ml in PBS (100 μl/well) for 1 hour at 37° C. Plates were washed 4 times with PBST (PBS, 0.05% Tween 20-200 μl, 1 minute/wash) then blocked using 200 μl 5% bovine serum albumin (BSA, Heat Shock, Fraction V-American Bio AB01088-00100) in PBST for 2 hours at 25° C. with moderate shaking. BSA was removed and plates were washed. […] Protein was removed and plates were washed. MATE labeled antibodies diluted to 1 μg/ml in PBSTB (100 μl/well) were added and incubated for 1 hour at 25° C. with gentle shaking. Wash plates. HRP labeled Mouse Anti-Human IgG, F(ab′)2 (Jackson Immuno Research 209-035-097) diluted 1:2500 in PBSTB was added (100 μl/well) and incubated for 1 hour at 25° C. with gentle shaking. Wash plates. Substrate (Super Signal ELISA Pico Chemiluminescent Substrate-Thermo 37069) was added (100 μl/well) and plates were incubated for 5 minutes at 25° C. with gentle shaking. Luminescence was then measured on the Biotek Synergy H1 microplate reader.
(§8) In some embodiments, “stock” is antibody only, and “control” is an antibody that went through the same procedure except using DMSO only as opposed to a compound. When contacted with targeting moieties such as antibodies in the Examples, compounds, e.g., I-95, I-96, etc. can react through their reactive groups
(§9) [drawing 887] with reactive groups of targeting moieties (e.g., —NH2) to form conjugates by forming amide groups (—C(O)NH—).

CD16a158F [14] = molecular target: T2, CD16a158F; experiment: as above; type: binding; conditions: Table 11; three replicate values
Protocol: as §7, §8, §9

CD16b = CD16b (Homo sapiens, UniProt O75015); experiment: as above; type: binding; conditions: Table 11; three replicate values
Protocol: as §7, §8, §9

CD32a H167 [15] = molecular target: T3, CD32a H167; experiment: as above; type: binding; conditions: Table 11; three replicate values
Protocol: as §7, §8, §9

CD32a-R167 [16] = experiment: as above; type: binding; conditions: Table 11; three replicate values
Protocol: as §7, §8, §9

CD32b [17] = molecular target: T4, CD32b; experiment: as above; type: binding; conditions: Table 11; three replicate values
Protocol: as §7, §8, §9

CD38 = CD38 (Homo sapiens, UniProt P28907); experiment: as above; type: binding; conditions: Table 11; three replicate values
Protocol: as §7, §8, §9

CD3ed [18] = molecular target: T5, CD3ed; experiment: as above; type: binding; conditions: Table 11; three replicate values
Protocol: as §7, §8, §9

T2 sequence (P08637 17-208 limits assumed): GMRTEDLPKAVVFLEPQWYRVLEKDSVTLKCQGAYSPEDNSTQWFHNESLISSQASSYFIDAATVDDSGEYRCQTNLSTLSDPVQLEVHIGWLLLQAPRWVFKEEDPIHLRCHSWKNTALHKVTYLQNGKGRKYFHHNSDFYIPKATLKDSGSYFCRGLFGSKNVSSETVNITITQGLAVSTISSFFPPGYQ
Sequence of CD64 (P12314 16-374): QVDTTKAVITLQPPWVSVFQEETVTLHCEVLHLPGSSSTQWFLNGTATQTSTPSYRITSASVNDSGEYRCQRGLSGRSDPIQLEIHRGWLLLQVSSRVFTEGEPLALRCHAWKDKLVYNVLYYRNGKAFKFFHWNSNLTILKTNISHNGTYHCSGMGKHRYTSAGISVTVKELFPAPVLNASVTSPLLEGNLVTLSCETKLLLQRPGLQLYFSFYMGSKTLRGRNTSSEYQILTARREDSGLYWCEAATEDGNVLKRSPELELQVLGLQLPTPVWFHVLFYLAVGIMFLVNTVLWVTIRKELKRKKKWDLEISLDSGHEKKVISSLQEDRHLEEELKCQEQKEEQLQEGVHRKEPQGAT
T1 sequence (P08637 17-208 F176V): as the sequence (P08637 17-208 limits assumed) above, with F160V counted along it
T5 sequence (P07766 23-126 limits assumed): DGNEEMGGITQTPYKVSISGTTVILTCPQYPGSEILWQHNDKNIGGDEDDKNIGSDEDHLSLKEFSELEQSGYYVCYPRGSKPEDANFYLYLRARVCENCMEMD
T5 sequence (P04234 22-105 limits assumed): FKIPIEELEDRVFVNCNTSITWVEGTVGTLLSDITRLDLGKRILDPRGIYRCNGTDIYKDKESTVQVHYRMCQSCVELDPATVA
Sequence of CD16b (O75015 17-200): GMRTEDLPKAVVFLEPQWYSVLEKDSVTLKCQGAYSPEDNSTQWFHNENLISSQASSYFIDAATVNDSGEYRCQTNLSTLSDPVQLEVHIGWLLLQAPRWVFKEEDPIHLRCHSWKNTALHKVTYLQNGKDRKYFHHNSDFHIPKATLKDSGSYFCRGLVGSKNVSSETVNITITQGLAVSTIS

Kd (CD16a158F [4]): 0.1 to 0.5 µM
Compound: O=C(CCCC[C@@H]1SC[C@@H]2NC(=O)N[C@@H]21)NCCOCCOCCOCCOCCOCCOCCOCCOCCn1cc(-c2cccc(NC(=O)N3CCC4(CC3)NC(=O)N(c3ccccc3)C4=O)c2)nn1 [Compound I-27]
Biotinylated Ligand ELISA-CD16a158V Binding (RLU) (CD16a158V [1]): B (a relative luminescence value (RLU) of 10,000-100,000) | ACDP (primary monocytes)-normalized phagocytosis score (primary monocytes): A (a normalized phagocytosis score of >2.0) | ACDP (CD16a negative THP1 cells)-normalized phagocytosis score [2]: B (a normalized phagocytosis score of 1.5-2.0) | Biotinylated Ligand ELISA-CD16a158F Binding (RLU) (CD16a158F [3]): B (a relative luminescence value (RLU) of 10,000-100,000)

Biotin ELISA Results CD16a-158F (CD16a158F [5]): 1915 and 592 and 1294 | Biotin ELISA Results CD16a-158V (CD16a158V [6]): 2241 and 1940 and 2108 | Biotin ELISA Results CD32a-H167 (CD32a H167 [7]): 3965 and 4173 and 4715 | Biotin ELISA Results CD32a-R167 (CD32a-R167 [8]): 4134 and 3245 and 4916 | Biotin ELISA Results CD32b (CD32b [9]): 3983 and 3476 and 6119 | Biotin ELISA Results CD3ed (CD3ed [10]): 2134 and 3894 and 2741 | Biotin ELISA Results CD64 (CD64): 68732 and 70002 and 48114 | Kd (CD16a158F [4]): 0.5 to 1 µM
Compound: O=C(CCCC[C@@H]1SC[C@@H]2NC(=O)N[C@@H]21)NCCOCCOCCOCCOCCOCCOCCOCCOCCn1cc(-c2ccc(NC(=O)C3CC(=O)N(c4cc(F)ccc4F)C3)cc2)nn1 (some centres unmarked) [Compound I-31]
Biotinylated Ligand ELISA-CD16a158V Binding (RLU) (CD16a158V [1]): C (a relative luminescence value (RLU) of 1,000-10,000) | Biotin ELISA Results No Protein [11]: 2129 and 3223 and 1542 | Biotinylated Ligand ELISA-CD16a158F Binding (RLU) (CD16a158F [3]): C (a relative luminescence value (RLU) of 1,000-10,000)

Compound: Rituximab (UDP-GalNAz labeled)
CD16a158V Normalized* Response (%) (CD16a158V [12]): C (an ELISA result of 15-25% relative to Rituximab) | CD16a158F Normalized* Response (%) (CD16a158F [13]): C (an ELISA result of 15-25% relative to Rituximab)

MATE ELISA Results CD16a 158V (CD16a 158V): 1407940 and 1365053 and 1337882 | MATE ELISA Results CD16a 158F (CD16a158F [14]): 82022 and 81780 and 84907 | MATE ELISA Results CD16b (CD16b): 3125 and 3086 and 3079 | MATE ELISA Results CD32a H167 (CD32a H167 [15]): 485766 and 481839 and 470053 | MATE ELISA Results CD32a R157 (CD32a-R167 [16]): 125444 and 122409 and 116704 | MATE ELISA Results CD32b (CD32b [17]): 9479 and 9358 and 9228 | MATE ELISA Results CD38 (CD38): 2893900 and 2774268 and 2739576 | MATE ELISA Results CD3ed (CD3ed [18]): 219 and 257 and 505
Compound: Daratumumab Control: "'control' is an antibody that went through the same procedure except using DMSO only as opposed to a compound"
